Measured values as given in publication PMC8102066 (eLife, 2021).
Values joined by “and” are separate entries in the source; they are usually repeats but may differ in a detail not shown here. Identical values can stand only once.

Tests used:
mGluR2-C121A-I779A = molecular target: T1, mGluR2-C121A-I779A (Rattus norvegicus, UniProt P31421, C121A/I779A); experiment: SiMPull subunit counting in the presence of ligands; conditions: SNAP-mGluR2-C121A-I779A in presence of the ligand; single replicates per experiment day
T1 construct: expressed in transfected cells; host or cells: HEK 293 T (detergent lysate, pulled down by anti-HA antibody)
T1 sequence (P31421 19-872 C121A/I779A): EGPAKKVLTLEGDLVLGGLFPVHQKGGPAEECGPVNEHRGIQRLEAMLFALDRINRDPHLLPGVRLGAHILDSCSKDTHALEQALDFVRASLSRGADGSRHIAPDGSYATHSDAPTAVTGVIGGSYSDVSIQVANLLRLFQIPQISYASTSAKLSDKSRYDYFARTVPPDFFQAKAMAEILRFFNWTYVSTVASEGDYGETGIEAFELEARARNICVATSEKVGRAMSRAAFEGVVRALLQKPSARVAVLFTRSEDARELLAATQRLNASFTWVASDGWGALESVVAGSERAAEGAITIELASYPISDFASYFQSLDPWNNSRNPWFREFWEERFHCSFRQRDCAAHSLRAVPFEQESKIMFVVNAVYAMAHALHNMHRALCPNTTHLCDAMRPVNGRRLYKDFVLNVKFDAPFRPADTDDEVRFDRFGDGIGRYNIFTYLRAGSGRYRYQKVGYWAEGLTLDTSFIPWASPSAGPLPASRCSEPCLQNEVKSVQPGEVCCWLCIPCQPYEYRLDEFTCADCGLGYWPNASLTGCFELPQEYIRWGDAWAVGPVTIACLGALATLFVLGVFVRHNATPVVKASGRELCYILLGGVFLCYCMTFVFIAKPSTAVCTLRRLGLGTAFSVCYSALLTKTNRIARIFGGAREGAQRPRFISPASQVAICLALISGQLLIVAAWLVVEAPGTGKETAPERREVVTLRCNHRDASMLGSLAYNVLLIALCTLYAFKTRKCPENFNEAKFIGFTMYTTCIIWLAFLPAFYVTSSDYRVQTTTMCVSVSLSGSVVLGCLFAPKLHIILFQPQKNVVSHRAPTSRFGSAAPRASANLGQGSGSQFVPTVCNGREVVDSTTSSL

mGluR3-3xTM4 [1] = molecular target: T2, mGluR3-3xTM4 (Rattus norvegicus, UniProt P31422, F690A/G694A/S686A); experiment: Inter-LBD FRET (N-terminal SNAP-tags), live cells; conditions: for FRET response amplitude: mGluR3-3xTM4, inter-LBD FRET
T2 sequence (P31422 23-879 S686A/F690A/G694A): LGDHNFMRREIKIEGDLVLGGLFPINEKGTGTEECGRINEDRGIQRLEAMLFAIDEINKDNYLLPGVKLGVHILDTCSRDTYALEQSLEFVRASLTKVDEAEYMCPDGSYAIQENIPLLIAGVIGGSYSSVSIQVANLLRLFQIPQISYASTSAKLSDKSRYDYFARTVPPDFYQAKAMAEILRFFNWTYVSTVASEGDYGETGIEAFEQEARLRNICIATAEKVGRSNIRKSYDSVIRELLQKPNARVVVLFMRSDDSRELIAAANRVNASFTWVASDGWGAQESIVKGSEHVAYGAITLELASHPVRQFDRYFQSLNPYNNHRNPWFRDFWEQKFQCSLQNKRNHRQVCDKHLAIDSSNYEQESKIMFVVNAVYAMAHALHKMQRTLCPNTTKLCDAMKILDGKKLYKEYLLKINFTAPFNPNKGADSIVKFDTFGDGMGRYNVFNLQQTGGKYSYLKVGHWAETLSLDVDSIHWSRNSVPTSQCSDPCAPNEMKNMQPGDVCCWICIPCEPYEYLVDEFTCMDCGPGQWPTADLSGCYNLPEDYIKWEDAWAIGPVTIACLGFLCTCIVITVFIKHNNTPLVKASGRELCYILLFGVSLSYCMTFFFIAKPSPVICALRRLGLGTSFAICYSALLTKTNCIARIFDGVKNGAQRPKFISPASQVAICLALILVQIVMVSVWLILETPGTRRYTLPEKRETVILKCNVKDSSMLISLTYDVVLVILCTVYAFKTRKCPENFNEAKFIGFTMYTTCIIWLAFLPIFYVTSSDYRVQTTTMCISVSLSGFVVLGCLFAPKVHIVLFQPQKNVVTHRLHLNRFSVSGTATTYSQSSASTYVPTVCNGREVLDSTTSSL

mGluR2-3xTM4 = mGluR2-3xTM4 (Rattus norvegicus, UniProt P31421, A677S/A681F/A685G); experiment: GIRK channel whole cell patch clamp in HEK 293 T cells
Chain of mGluR2-3xTM4 (P31421 19-872 A677S/A681F/A685G): as the sequence (P31421 19-872 C121A/I779A) above, with A103C, A659S, A663F, A667G, A761I counted along it

mGluR3-3xTM4 [2] = molecular target: mGluR3-3xTM4 (Rattus norvegicus, UniProt P31422, F690A/G694A/INS669ASEIGTGFPFDPHYVEVLGERMHYVDVGPRDGTPVLFLHGNPTSSYVWRNIIPHVAPTHRCIAPDLIGMGKSDKPDLGYFFDDHVRFMDAFIEALGLEEVVLVIHDWGSALGFHWAKRNPERVKGIAFMEFIRPIPTWDEWPEFARETFQAFRTTDVGRKLIIDQNVFIEGTLPMGVVRPLTEVEMDHYREPFLNPVDREPLWRFPNELPIAGEPANIVALVEEYMDWLHQSPVPKLLFWGTPGVLIPPAEAARLAKSLPNCKAVDIGPGLNLLQEDNPDLIGSEIARWLSTLEISGLE/S686A); experiment: Inter-TMD FRET sensor (HaloTag in ICL2), live cells; conditions: for FRET response amplitude: mGluR3-3xTM4, inter-TMD FRET
Chain of UniProt P31422 (P31422 with tags, fused parts or gaps with the stated changes): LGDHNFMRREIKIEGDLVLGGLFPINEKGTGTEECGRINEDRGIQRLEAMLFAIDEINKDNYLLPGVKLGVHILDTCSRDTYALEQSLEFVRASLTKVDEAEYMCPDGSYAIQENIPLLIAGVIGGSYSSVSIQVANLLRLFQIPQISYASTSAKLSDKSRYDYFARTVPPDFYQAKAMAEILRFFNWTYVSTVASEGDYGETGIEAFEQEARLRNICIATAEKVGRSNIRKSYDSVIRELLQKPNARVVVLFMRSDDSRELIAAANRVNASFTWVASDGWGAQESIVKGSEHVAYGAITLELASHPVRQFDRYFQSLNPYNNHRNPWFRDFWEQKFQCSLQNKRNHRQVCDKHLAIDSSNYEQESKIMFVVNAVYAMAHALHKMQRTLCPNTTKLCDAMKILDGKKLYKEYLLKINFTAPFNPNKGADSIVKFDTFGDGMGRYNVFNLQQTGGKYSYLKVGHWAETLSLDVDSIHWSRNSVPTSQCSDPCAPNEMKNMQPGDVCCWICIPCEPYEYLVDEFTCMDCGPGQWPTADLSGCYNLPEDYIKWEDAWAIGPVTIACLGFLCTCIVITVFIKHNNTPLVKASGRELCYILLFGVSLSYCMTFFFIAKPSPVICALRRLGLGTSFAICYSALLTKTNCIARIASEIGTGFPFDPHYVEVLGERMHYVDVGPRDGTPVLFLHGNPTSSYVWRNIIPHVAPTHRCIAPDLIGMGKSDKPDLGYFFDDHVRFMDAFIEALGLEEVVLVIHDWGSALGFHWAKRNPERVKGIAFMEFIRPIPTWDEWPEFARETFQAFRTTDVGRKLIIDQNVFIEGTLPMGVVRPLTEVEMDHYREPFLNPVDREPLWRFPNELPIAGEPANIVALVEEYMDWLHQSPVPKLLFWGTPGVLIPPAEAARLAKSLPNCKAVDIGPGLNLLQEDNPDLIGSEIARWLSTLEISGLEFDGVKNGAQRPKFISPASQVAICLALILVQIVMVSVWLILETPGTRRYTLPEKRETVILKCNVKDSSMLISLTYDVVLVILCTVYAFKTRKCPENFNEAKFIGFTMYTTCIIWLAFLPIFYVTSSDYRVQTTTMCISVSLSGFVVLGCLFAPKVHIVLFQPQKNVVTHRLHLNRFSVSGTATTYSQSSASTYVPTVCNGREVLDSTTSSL

mGluR3-I788A = mGluR3-I788A (Rattus norvegicus, UniProt P31422, I788A); experiment: as above; format: cell-based; design: expressed in transfected cells; host or cells: HEK 293 T; FRET response amplitude: scale not given here; conditions: for FRET response amplitude: inter-TMD FRET
Chain of mGluR3-I788A (P31422 23-879 I788A): as the sequence (P31422 23-879 S686A/F690A/G694A) above, with A664S, A668F, A672G, I766A counted along it
Excerpt: Next, we asked how perturbing the TM6 interface would alter the conformational dynamics detected by our TMD FRET sensors.

mGluR2 [3] = molecular target: mGluR2 (Rattus norvegicus, UniProt P31421); experiment: GIRK channel whole cell patch clamp in HEK 293 T cells
Chain of mGluR2 (Rattus norvegicus, UniProt P31421) (P31421 19-872): as the sequence (P31421 19-872 C121A/I779A) above, with A103C, A761I counted along it

mGluR3-3xTM4 [4] = molecular target: T2, mGluR3-3xTM4; experiment: as above; conditions: for GIRK current amplitude: mGluR3 3xTM4
mGluR2-C121A-3xTM4 = molecular target: T3, mGluR2-C121A-3xTM4 (Rattus norvegicus, UniProt P31421, A677S/A681F/A685G/C121A); experiment: SiMPull subunit counting in the presence of ligands
T3 construct: expressed in transfected cells; host or cells: HEK 293 T (detergent lysate, pulled down by anti-HA antibody)
T3 sequence (P31421 19-872 C121A/A677S/A681F/A685G): as the sequence (P31421 19-872 C121A/I779A) above, with A659S, A663F, A667G, A761I counted along it

mGluR3-F690A = mGluR3-F690A (Rattus norvegicus, UniProt P31422, F690A); experiment: Calcium imaging in HEK 293 T cells; conditions: for Calcium response amplitude: mGluR3-F681A
Chain of mGluR3-F690A (P31422 23-879 F690A): as the sequence (P31422 23-879 S686A/F690A/G694A) above, with A664S, A672G counted along it

mGluR3-C127A = mGluR3-C127A (Rattus norvegicus, UniProt P31422, C127A); experiment: SiMPull subunit counting in the presence of ligands
Chain of mGluR3-C127A (P31422 23-879 C127A): as the sequence (P31422 23-879 S686A/F690A/G694A) above, with C105A, A664S, A668F, A672G counted along it

mGluR3 = mGluR3 (Rattus norvegicus, UniProt P31422); experiment: GIRK channel whole cell patch clamp in HEK 293 T cells; conditions: for GIRK current amplitude: mGluR3
Chain of mGluR3 (P31422 23-879): as the sequence (P31422 23-879 S686A/F690A/G694A) above, with A664S, A668F, A672G counted along it

mGluR2 [5] = molecular target: mGluR2 (Rattus norvegicus, UniProt P31421, INS660ASEIGTGFPFDPHYVEVLGERMHYVDVGPRDGTPVLFLHGNPTSSYVWRNIIPHVAPTHRCIAPDLIGMGKSDKPDLGYFFDDHVRFMDAFIEALGLEEVVLVIHDWGSALGFHWAKRNPERVKGIAFMEFIRPIPTWDEWPEFARETFQAFRTTDVGRKLIIDQNVFIEGTLPMGVVRPLTEVEMDHYREPFLNPVDREPLWRFPNELPIAGEPANIVALVEEYMDWLHQSPVPKLLFWGTPGVLIPPAEAARLAKSLPNCKAVDIGPGLNLLQEDNPDLIGSEIARWLSTLEISGLE); experiment: Inter-TMD FRET sensor (HaloTag in ICL2), live cells; conditions: mGluR2, inter-TMD FRET
Chain of UniProt P31421 (P31421 with tags, fused parts or gaps with the stated changes): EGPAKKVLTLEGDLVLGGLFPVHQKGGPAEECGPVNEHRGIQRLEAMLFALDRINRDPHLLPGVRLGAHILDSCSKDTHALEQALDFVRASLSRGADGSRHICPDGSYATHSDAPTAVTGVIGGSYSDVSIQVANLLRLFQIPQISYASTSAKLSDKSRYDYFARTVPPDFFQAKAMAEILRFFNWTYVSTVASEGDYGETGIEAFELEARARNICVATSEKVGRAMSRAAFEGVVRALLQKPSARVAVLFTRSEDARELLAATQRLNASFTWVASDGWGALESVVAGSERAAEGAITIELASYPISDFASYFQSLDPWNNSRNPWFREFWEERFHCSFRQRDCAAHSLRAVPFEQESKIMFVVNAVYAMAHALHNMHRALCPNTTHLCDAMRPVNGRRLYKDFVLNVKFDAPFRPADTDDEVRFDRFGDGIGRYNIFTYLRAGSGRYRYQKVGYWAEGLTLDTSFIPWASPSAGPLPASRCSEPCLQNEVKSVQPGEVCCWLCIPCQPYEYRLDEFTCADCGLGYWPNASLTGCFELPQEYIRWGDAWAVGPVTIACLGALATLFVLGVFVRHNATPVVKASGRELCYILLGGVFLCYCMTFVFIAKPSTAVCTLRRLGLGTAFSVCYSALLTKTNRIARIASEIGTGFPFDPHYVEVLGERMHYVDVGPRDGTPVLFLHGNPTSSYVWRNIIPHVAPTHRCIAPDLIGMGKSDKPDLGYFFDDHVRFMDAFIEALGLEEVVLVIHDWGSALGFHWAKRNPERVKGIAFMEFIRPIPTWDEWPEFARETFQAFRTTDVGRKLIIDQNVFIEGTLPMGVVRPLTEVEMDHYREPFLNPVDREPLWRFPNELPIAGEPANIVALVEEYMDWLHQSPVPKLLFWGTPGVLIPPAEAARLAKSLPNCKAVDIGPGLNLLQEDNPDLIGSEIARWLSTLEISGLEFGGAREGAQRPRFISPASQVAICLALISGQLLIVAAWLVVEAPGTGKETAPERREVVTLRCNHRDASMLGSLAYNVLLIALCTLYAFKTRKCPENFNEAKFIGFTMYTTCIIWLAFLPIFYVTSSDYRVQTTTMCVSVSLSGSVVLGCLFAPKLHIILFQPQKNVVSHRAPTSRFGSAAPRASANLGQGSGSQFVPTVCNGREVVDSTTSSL

[6] = read-out: Glutamate EC50, inter-TMD FRET, normalized to saturating (1 mM) glutamate, unit inferred
[7] = read-out: Glutamate EC50, GIRK activation, normalized to saturating (1 mM) glutamate, unit inferred

SMILES: N[C@@H](CCC(=O)O)C(=O)O [glutamate]
- % Dimerization (mGluR2-C121A-I779A): 54.00% and 69.67% and 69.76% and 51.05% and 59.66% and 56.67%
- FRET response amplitude (mGluR3-3xTM4 [1]; Glutamate 1 nM): 0.00
- FRET response amplitude (mGluR3-3xTM4 [1]; Glutamate 10 nM): 0.00
- FRET response amplitude (mGluR3-3xTM4 [1]; Glutamate 1 uM): 0.63 and 0.58
- FRET response amplitude (mGluR3-3xTM4 [1]; Glutamate 3 uM): 0.78 and 0.90
- FRET response amplitude (mGluR3-3xTM4 [1]; Glutamate 10 uM): 0.99 and 0.96 and 1.05
- FRET response amplitude (mGluR3-3xTM4 [1]; Glutamate 1 mM): 1.00
- EC50 (mGluR3-3xTM4 [1]; read-out: Glutamate EC50, LBD FRET, normalized to saturating (1 mM) glutamate, unit inferred): 0.67 ± 0.05 µM
- GIRK current amplitude (mGluR2-3xTM4; Glutamate 10 nM): 0.000
- GIRK current amplitude (mGluR2-3xTM4; Glutamate 100 uM): 0.955 and 1.148 and 1.101
- GIRK current amplitude (mGluR2-3xTM4; Glutamate 1 mM): 1.000
- FRET response amplitude (mGluR3-3xTM4 [2]; Glutamate 1 nM): 0.00
- FRET response amplitude (mGluR3-3xTM4 [2]; Glutamate 100 nM): 0.20 and 0.12 and 0.17 and 0.16 and 0.13 and 0.21
- FRET response amplitude (mGluR3-3xTM4 [2]; Glutamate 1 uM): 0.69 and 0.42 and 0.65 and 0.66
- FRET response amplitude (mGluR3-3xTM4 [2]; Glutamate 10 uM): 0.75 and 0.99 and 0.89
- FRET response amplitude (mGluR3-3xTM4 [2]; Glutamate 100 uM): 0.80 and 0.96
- FRET response amplitude (mGluR3-3xTM4 [2]; Glutamate 1 mM): 1.00
- EC50 (mGluR3-3xTM4 [2]; [6]): 0.56 ± 0.1 µM
- FRET response amplitude (mGluR3-I788A; Glutamate 10 nM): 0.00
- FRET response amplitude (mGluR3-I788A; Glutamate 1 uM): 0.60 and 0.66 and 0.55
- FRET response amplitude (mGluR3-I788A; Glutamate 10 uM): 0.97 and 1.00 and 0.86
- FRET response amplitude (mGluR3-I788A; Glutamate 100 uM): 1.00
- FRET response amplitude (mGluR3-I788A; Glutamate 1 mM): 1.00
- EC50 (mGluR3-I788A; [6]): 0.66 ± 0.05 µM
- GIRK current amplitude (mGluR2 [3]; Glutamate 10 nM): 0.000
- GIRK current amplitude (mGluR2 [3]; Glutamate 10 uM): 0.889 and 0.827 and 0.749 and 0.879 and 0.952
- GIRK current amplitude (mGluR2 [3]; Glutamate 100 uM): 0.942 and 1.150 and 0.849 and 0.991
- GIRK current amplitude (mGluR2 [3]; Glutamate 1 mM): 1.000
- GIRK current amplitude (mGluR3-3xTM4 [4]; Glutamate 10 nM): 0.000
- GIRK current amplitude (mGluR3-3xTM4 [4]; Glutamate 10 uM): 0.695 and 0.866
- GIRK current amplitude (mGluR3-3xTM4 [4]; Glutamate 100 uM): 1.078 and 0.767 and 0.806
- GIRK current amplitude (mGluR3-3xTM4 [4]; Glutamate 1mM): 1.000
- EC50 (mGluR3-3xTM4 [4]; [7]): 1.02 ± 0.17 µM
- % Dimerization (mGluR2-C121A-3xTM4; SNAP-mGluR2-C121A-3xTM4 in presence of the ligand, single replicates per experiment day): 89.26% and 88.28% and 81.34% and 81.93% and 82.70% and 80.09%
- effect of ligand on dimerization (SiMPull) (mGluR2-C121A-3xTM4; saturating concentration): clear increase in dimerization
- Calcium response amplitude (mGluR3-F690A; Glutamate 10 nM): 0.00
- Calcium response amplitude (mGluR3-F690A; Glutamate 100 nM): 0.00
- Calcium response amplitude (mGluR3-F690A; Glutamate 3 uM): 0.33 and 0.27
- Calcium response amplitude (mGluR3-F690A; Glutamate 10 uM): 0.40 and 0.44 and 0.57 and 0.58
- Calcium response amplitude (mGluR3-F690A; Glutamate 100 uM): 1.00 and 0.86
- Calcium response amplitude (mGluR3-F690A; Glutamate 1 mM): 1.00
- EC50 (mGluR3-F690A; read-out: Glutamate EC50, calcium imaging, normalized to saturating (1 mM) glutamate): 9.59 ± 0.06 µM
- % Dimerization (mGluR3-C127A; SNAP-mGluR3-C127A in presence of the ligand, single replicates per experiment day): 83.23% and 72.86% and 68.26% and 70.70% and 67.67% and 71.63%
- effect of ligand on dimerization (SiMPull) (mGluR3-C127A; saturating concentration): increased dimerization
- GIRK current amplitude (mGluR3; Glutamate 100 nM): 0.155 and 0.145 and 0.126 and 0.149
- GIRK current amplitude (mGluR3; Glutamate 1 uM): 0.541 and 0.995 and 0.692
- GIRK current amplitude (mGluR3; Glutamate 10 uM): 0.818 and 1.150 and 0.770 and 0.856 and 1.007
- GIRK current amplitude (mGluR3; Glutamate 100 uM): 1.000
- EC50 (mGluR3; [7]): 0.43 ± 0.1 µM
- FRET response amplitude (mGluR2 [5]; Glutamate 10 nM): 0.00
- FRET response amplitude (mGluR2 [5]; Glutamate 100 nM): 0.00
- FRET response amplitude (mGluR2 [5]; Glutamate 100 uM): 0.97 and 0.96 and 0.95 and 0.92 and 1.04 and 0.99 and 1.01
- FRET response amplitude (mGluR2 [5]; Glutamate 1 mM): 1.00
